From US20250302972A1, “FORMULATION” (ENA Respiratory Pty Ltd, priority 2021, published 2025)
“And” between values parts separate entries of the source, which are not always exact repeats. Identical values can stand only once.

Key:
Type in all cases: cell-based
HEK-Blue Null2 cells = test: HEK-Blue Null2 control cell line (control for mouse TLR2); conditions: TLR2-free control cells
Method: (§1) The secreted embryonic alkaline phosphatase (SEAP) reporter is under the control of a promoter inducible by the transcription factor NF-κB. This reporter gene allows the monitoring of signaling through the TLR, based on the activation of NF-κB. In a 96-well plate (200 μL total volume) containing the appropriate cells (50,000-75,000 cells/well), 20 μL of the test article or the positive control ligand (HKLC) is added to the wells. The media added to the wells is designed for the detection of NF-κB induced SEAP expression. After a 16-24-hour incubation the optical density (OD) is read at 650 nm on a Molecular Devices SpectraMax 340PC absorbance detector.

human TLR2 = biological target: T1, human TLR2 (Homo sapiens, UniProt O60603); test: HEK-Blue hTLR2 Dose Response (NF-κB SEAP reporter); conditions: for stimulatory (agonist) activity for hTLR2: HEK-Blue hTLR2
T1 construct: expressed in transfected cells; host or cells: HEK-Blue hTLR2
Method: (§2) Toll-Like Receptor (TLR) stimulation is tested by assessing NF-κB activation in the TLR expressing cell lines. HEK-Blue h/mTLR2 cells have been stably transfected with human or mouse TLR2 and CD14. The activity of the test articles are tested on human and mouse TLR2, as potential agonists. The test articles are evaluated at seven concentrations and compared to control ligands (see list below). These steps are performed in triplicate.
[…] Starting from the 5 μg/mL working stock, a series of six 1:4 serial dilutions were made by mixing 100 μL of the previous highest dilution with 300 μL sterile PBS.
as §1

HEK-Blue Null1 cells = test: HEK-Blue Null1 control cell line (control for human TLR2); conditions: TLR2-free control cells
Method: as §1

mouse TLR2 = biological target: T2, mouse TLR2 (Mus musculus, UniProt Q9QUN7); test: HEK-Blue mTLR2 Dose Response (NF-κB SEAP reporter)
T2 construct: expressed in transfected cells; host or cells: HEK-Blue mTLR2
Method: as §2
A 5 μg/mL working stock was then prepared for each compound from the 20 μg/mL dilution in sterile PBS. Starting from the 5 μg/mL working stock, a series of six 1:4 serial dilutions were made by mixing 100 μL of the previous highest dilution with 300 μL sterile PBS.
as §1

T1 sequence (O60603 21-784): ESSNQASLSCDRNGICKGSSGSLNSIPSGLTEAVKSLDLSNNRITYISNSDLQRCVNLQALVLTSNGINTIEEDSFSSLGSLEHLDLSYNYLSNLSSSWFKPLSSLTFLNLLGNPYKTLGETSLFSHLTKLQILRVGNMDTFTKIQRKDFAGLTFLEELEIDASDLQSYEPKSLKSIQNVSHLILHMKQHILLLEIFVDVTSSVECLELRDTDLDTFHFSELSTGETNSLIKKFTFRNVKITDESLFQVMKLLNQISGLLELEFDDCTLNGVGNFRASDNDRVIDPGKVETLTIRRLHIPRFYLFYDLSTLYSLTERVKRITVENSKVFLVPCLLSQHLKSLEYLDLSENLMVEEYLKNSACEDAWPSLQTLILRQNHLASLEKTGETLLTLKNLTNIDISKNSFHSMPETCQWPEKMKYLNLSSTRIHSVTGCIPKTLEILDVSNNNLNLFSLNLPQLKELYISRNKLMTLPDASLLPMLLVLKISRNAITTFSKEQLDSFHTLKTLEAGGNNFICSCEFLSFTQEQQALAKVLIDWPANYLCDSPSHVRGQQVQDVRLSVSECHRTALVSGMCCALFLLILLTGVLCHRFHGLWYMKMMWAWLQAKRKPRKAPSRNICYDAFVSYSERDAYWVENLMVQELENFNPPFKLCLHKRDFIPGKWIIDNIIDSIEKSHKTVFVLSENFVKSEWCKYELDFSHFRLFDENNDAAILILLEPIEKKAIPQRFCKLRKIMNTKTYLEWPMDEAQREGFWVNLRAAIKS
T1 sequence (Q9Y2C9 32-796 partner): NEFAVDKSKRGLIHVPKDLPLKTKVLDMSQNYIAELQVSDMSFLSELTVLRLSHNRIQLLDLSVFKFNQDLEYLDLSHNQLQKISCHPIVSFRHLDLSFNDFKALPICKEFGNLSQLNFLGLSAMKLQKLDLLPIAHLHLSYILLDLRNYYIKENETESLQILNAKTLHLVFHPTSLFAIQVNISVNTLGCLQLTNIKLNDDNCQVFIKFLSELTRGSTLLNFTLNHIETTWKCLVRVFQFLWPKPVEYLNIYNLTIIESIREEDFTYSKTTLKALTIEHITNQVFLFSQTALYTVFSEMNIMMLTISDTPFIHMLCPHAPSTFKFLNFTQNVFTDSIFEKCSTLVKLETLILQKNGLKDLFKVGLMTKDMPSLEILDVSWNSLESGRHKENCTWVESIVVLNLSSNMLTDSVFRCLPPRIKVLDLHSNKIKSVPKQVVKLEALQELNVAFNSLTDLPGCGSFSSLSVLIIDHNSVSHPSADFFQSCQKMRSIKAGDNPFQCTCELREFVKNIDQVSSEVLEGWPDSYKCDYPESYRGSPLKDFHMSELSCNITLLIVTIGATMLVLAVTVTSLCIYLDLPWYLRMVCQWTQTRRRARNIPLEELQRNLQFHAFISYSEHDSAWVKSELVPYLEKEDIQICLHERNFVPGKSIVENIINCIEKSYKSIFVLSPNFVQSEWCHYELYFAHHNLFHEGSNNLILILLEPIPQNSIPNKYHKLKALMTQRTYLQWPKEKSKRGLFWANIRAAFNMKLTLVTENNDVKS
T2 sequence (Q9QUN7 25-784): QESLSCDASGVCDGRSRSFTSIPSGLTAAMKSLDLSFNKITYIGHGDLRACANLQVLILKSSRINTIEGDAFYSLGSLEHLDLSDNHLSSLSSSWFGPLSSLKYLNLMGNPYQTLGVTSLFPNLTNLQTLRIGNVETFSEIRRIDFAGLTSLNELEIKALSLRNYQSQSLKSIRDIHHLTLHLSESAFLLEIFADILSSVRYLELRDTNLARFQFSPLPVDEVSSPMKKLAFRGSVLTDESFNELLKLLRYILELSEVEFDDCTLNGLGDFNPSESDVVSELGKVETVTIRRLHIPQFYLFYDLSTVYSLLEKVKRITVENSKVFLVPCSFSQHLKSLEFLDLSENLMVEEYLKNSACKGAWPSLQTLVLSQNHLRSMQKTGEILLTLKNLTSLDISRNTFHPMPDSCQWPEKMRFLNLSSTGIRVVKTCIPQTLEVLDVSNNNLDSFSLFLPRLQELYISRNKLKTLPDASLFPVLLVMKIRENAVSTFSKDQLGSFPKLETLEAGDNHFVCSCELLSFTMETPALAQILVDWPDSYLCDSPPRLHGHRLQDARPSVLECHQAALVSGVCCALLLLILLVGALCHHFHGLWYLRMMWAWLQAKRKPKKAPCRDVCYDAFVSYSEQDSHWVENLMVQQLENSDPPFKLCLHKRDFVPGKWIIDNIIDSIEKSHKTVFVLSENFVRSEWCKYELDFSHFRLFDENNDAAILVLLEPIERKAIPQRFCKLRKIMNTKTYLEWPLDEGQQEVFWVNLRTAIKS
T2 sequence (Q9Y2C9 32-796 partner): as the sequence (Q9Y2C9 32-796 partner) above

Row | SMILES | stimulatory response in HEK-Blue Null2 (mouse) cells (HEK-Blue Null2 cells) | Fold Induction (ratio of average induced value to average non-induced value) (human TLR2; 0.12 pg/mL) | optical density (650 nm), Average (human TLR2; 0.12 pg/mL) | optical density (650 nm), screenings 1-3 (human TLR2; 0.12 pg/mL) | optical density (650 nm), Average (human TLR2; 0.49 pg/mL) | optical density (650 nm), screenings 1-3 (human TLR2; 0.49 pg/mL) | optical density (650 nm), Average (human TLR2; 1.95 pg/mL) | optical density (650 nm), screenings 1-3 (human TLR2; 1.95 pg/mL) | optical density (650 nm), Average (human TLR2; 7.81 pg/mL) | optical density (650 nm), screenings 1-3 (human TLR2; 7.81 pg/mL) | optical density (650 nm), Average (human TLR2; 31.25 pg/mL) | optical density (650 nm), screenings 1-3 (human TLR2; 31.25 pg/mL) | optical density (650 nm), Average (human TLR2; 125 pg/mL) | optical density (650 nm), screenings 1-3 (human TLR2; 125 pg/mL) | Fold Induction (human TLR2; 500 pg/mL) | optical density (650 nm), Average (human TLR2; 500 pg/mL) | optical density (650 nm), screenings 1-3 (human TLR2; 500 pg/mL) | stimulatory (agonist) activity for hTLR2 (human TLR2) | stimulatory response in HEK-Blue Null1 (human) cells (HEK-Blue Null1 cells) | stimulatory (agonist) activity for mTLR2 (mouse TLR2) | also measured
1 | CCCCCCCCCCCCCC[C@@H](C)C(=O)OC[C@H](CSC[C@H](N)C(=O)N[C@@H](CO)C(=O)NCCOCCOCCOCCOCCOCCOCCOCCOCCOCCOCCOCCOCCOCCOCCOCCOCCOCCOCCOCCOCCOCCOCCOCCOCCOCCOCCOCCOCCC(=O)NCC(N)=O)OC(=O)[C@H](C)CCCCCCCCCCCCCC [B6] | not observed | 9.4 | 0.679 | 0.591 and 0.742 and 0.704 | 1.156 | 1.230 and 1.151 and 1.088 | 1.785 | 1.755 and 1.776 and 1.824 | 2.186 | 2.154 and 2.186 and 2.219 | 2.529 | 2.512 and 2.527 and 2.547 | 2.470 | 2.522 and 2.466 and 2.422 | 36.6 | 2.637 | 2.649 and 2.606 and 2.656 | possesses stimulatory activity | not observed | possesses stimulatory activity | Fold Induction (human TLR2; 0.49 pg/mL): 16.1; Fold Induction (human TLR2; 1.95 pg/mL): 24.8; Fold Induction (human TLR2; 7.81 pg/mL): 30.4; Fold Induction (human TLR2; 31.25 pg/mL): 35.1; Fold Induction (human TLR2; 125 pg/mL): 34.3; EC50 (human TLR2; agonism of hTLR2, HEK-Blue hTLR2): 0.34 nM
2 | CCCCCCCCCCCCCC[C@@H](C)C(=O)OCC[C@H](CSC[C@H](N)C(=O)N[C@@H](CO)C(=O)NCCOCCOCCOCCOCCOCCOCCOCCOCCOCCOCCOCCOCCOCCOCCOCCOCCOCCOCCOCCOCCOCCOCCOCCOCCOCCOCCOCCOCCC(=O)NCC(N)=O)OC(=O)[C@H](C)CCCCCCCCCCCCCC [B14] | not observed |  | 0.823 | 0.826 and 0.869 and 0.774 | 1.342 | 1.256 and 1.364 and 1.406 | 2.018 | 1.994 and 2.061 and 2.000 | 2.562 | 2.569 and 2.545 and 2.571 | 2.744 | 2.820 and 2.720 and 2.691 | 2.814 | 2.928 and 2.800 and 2.713 | 33.9 | 2.759 | 2.722 and 2.765 and 2.791 | possesses stimulatory activity | not observed | possesses stimulatory activity | 
3 | CCCCCCCCCCCCCC[C@H](C)C(=O)OC[C@H](CSC[C@H](N)C(=O)N[C@@H](CO)C(=O)NCCOCCOCCOCCOCCOCCOCCOCCOCCOCCOCCOCCOCCOCCOCCOCCOCCOCCOCCOCCOCCOCCOCCOCCOCCOCCOCCOCCOCCC(=O)NCC(N)=O)OC(=O)[C@@H](C)CCCCCCCCCCCCCC [B8] | not observed | 25.4 | 1.928 | 1.936 and 1.856 and 1.992 | 2.243 | 2.345 and 2.229 and 2.154 | 2.465 | 2.469 and 2.420 and 2.507 | 2.565 | 2.326 and 2.636 and 2.734 | 2.652 | 2.563 and 2.643 and 2.751 | 2.735 | 2.746 and 2.716 and 2.743 | 35.1 | 2.668 | 2.648 and 2.664 and 2.693 | possesses stimulatory activity | not observed | possesses stimulatory activity | Fold Induction (human TLR2; 0.49 pg/mL): 29.5; Fold Induction (human TLR2; 1.95 pg/mL): 32.4; Fold Induction (human TLR2; 7.81 pg/mL): 33.8; Fold Induction (human TLR2; 31.25 pg/mL): 34.9; Fold Induction (human TLR2; 125 pg/mL): 36
4 | CCCCCCCCCCCCCC[C@H](C)C(=O)OCC[C@H](CSC[C@H](N)C(=O)N[C@@H](CO)C(=O)NCCOCCOCCOCCOCCOCCOCCOCCOCCOCCOCCOCCOCCOCCOCCOCCOCCOCCOCCOCCOCCOCCOCCOCCOCCOCCOCCOCCOCCC(=O)NCC(N)=O)OC(=O)[C@@H](C)CCCCCCCCCCCCCC [B16] | not observed |  | 0.666 | 0.688 and 0.591 and 0.718 | 1.099 | 1.080 and 1.097 and 1.121 | 1.521 | 1.478 and 1.513 and 1.573 | 1.978 | 1.903 and 1.897 and 2.133 | 2.252 | 2.093 and 2.297 and 2.367 | 2.540 | 2.531 and 2.544 and 2.545 |  | 2.475 | 2.466 and 2.488 and 2.472 | possesses stimulatory activity | not observed | possesses stimulatory activity | 
